One test deals with LSCs. Put plainly: CD70 expression on LSCs of AML patients treated with HMA. Type of test: in vivo, human. As to conditions: newly diagnosed AML patients after HMA treatment.
A further test relates to AML. Particulars: aza alone; cited from earlier work.

We go through one compound from patent US20190106498A1, “TREATMENT FOR ACUTE MYELOID LEUKEMIA” (priority 2017, published 2019).

Description for LSCs: (FIG. 2A) Representative FACS plots of CD70 expression on lin-CD90+CD34+CD38− AML stem/progenitor cells after culture in the presence or absence of 0.5 mM decitabine (D) or vehicle (Veh). Isotype: grey; CD70: black. (FIG. 2B) Cell Viability. (FIG. 2C) Fold change ΔMFI CD70 and (FIG. 2D) mRNA CD70 expression (AML: n=9-15; healthy: n=3). (FIG. 2E) Representative FACS plot and (FIG. 2F) fold change ΔMFI CD70 on stem/progenitor cells in the peripheral blood of AML patients at diagnosis and after 1 cycle of decitabine or azacitidine treatment (D(5), 20 mg/kg, daily for 5 days; A(7), 75 mg/m^2, daily for 7 days).

On to `Nc1ncn([C@@H]2O[C@H](CO)[C@@H](O)[C@H]2O)c(=O)n1` [azacitidine], for which the “CD70 expression on LSCs compared to level at diagnosis” value in the test with LSCs is listed as “increase in CD70 expression”. The response rate entry in the test with AML is reported as “approximately 25%”.
